Experimental findings from US12234238B2, “Antimicrobial compounds and methods of making and using the same” (BIOVERSYS AG, priority 2017, dated 2025) are described below.

Assay [1] concerns Staphylococcus aureus (S. aureus) 11540 strain. In words: standard microdilution assay to determine minimum inhibitory concentrations (MICs), S. aureus. The format is cell-based. The procedure:
(§1) The in vitro activity of the compounds of the present disclosure can be determined. Antimicrobial testing is typically performed to determine the minimum inhibitory concentration (MIC). Minimum inhibitory concentrations (MICs) are determined by the microdilution method in a final volume of 100 μl according to protocols outlined by The Clinical and Laboratory Standards Institute (CLSI). Performance standards for reference strains are assessed within the same experimental design to maintain quality control. See, for example, Clinical Laboratory Standards Institute: Methods for dilution antimicrobial susceptibility tests for bacteria that grow aerobically M7-A8. Approved Standard-Eighth Edition. Wayne, PA: CLSI; December 2008: and Clinical Laboratory Standards Institute: Performance Standards for Antimicrobial Susceptibility Testing M100-S20; Approved Standard-Twentieth Edition. Wayne, PA: CLSI; June 2010. The compounds of the present disclosure were tested for antimicrobial activity. The Compounds 1-122 were run against Eschericia coli (E. coli) strain ATCC25922 and against Staphylococcus aureus (S. aureus) 11540 strain using a standard microdilution assay to determine minimum inhibitory concentrations (MICs). […] It will be recognized by one skilled in the art that the compounds can be assessed against other bacterial organisms and that the presentation of data for activity against Eschericia coli and Staphylococcus aureus are illustrative and in no way is intended to limit the scope of the present disclosure. The compounds of the present disclosure can be assayed against a range of other microorganisms depending upon the performance activity desired to be gathered. Furthermore, the “+” and “−” representation and the selection of a cutoff value of 16 micrograms/mL is also illustrative and in no way is intended to limit the scope of the present disclosure.
For orientation: Broth dilution looks for growth in wells or tubes with falling amounts of substance.

The test system of assay [2] is Eschericia coli (E. coli) strain ATCC25922. The assay is described as follows: standard microdilution assay to determine minimum inhibitory concentrations (MICs), E. coli. The settings on record: Escherichia coli. Type of assay: cell-based. The procedure: as §1

Bounds are passed on as bounds.

Usually MIC stands for the lowest concentration that inhibits growth of the organism. The low end stands for a more susceptible organism, the high end for a less susceptible organism. On to `CNC(=N)SCC[C@@H]1CCC[C@@H](c2ccc(-n3cc4cc(-c5cc(CCC[C@H](C)N)cc(Cl)c5F)[nH]c4nc3=O)cc2)N1` [Compound 41], for which the MIC in assay [1] and in assay [2] was at most 16 µg/mL each time.
`C[C@H](N)CCCc1cc(Cl)c(F)c(-c2cc3cn(-c4ccc([C@@H]5CCC[C@@H](CCSC(=N)N)N5C)cc4)c(=O)nc3[nH]2)c1` [Compound 42]: the MIC in assay [1] and in assay [2] was at most 16 µg/mL in each case.
Turning to `C/N=C(\NC)SCC[C@@H]1CCC[C@@H](c2ccc(-n3cc4cc(-c5cc(CCC[C@H](C)N)cc(Cl)c5F)[nH]c4nc3=O)cc2)N1` [Compound 43], the MIC in assay [1] and in assay [2] was at most 16 µg/mL in each case.
As for `C[C@H](N)CCCc1cc(Cl)c(F)c(-c2cc3cn(-c4ccc([C@@H]5CCC[C@@H](CCSC(=N)N(C)C)N5)cc4)c(=O)nc3[nH]2)c1` [Compound 44], the minimal inhibitory concentration (MIC) in assay [1] and in assay [2] was at most 16 µg/mL each time.
For the molecule `C=C[C@H](N)CCCc1cc(Cl)c(F)c(-c2cc3cn(-c4ccc([C@@H]5CCC[C@@H](CCSC(=N)N)N5)cc4)c(=O)nc3[nH]2)c1` [Compound 45], the minimal inhibitory concentration (MIC) in assay [1] and in assay [2] was at most 16 µg/mL throughout.
As to `C=CCN1[C@H](CCSC(=N)N)CCC[C@H]1c1ccc(-n2cc3cc(-c4cc(CCC[C@H](C)N)cc(Cl)c4F)[nH]c3nc2=O)cc1` [Compound 46], the minimum inhibitory concentration (MIC) in assay [1] and in assay [2] was at most 16 µg/mL each time.
For `C[C@H](N)CCO[C@H]1CNC(c2cc3cn(-c4ccc([C@@H]5CCC[C@@H](CCSC(=N)N)N5)cc4)c(=O)nc3[nH]2)C1` (stereo partly drawn) [Compound 47], the MIC in assay [1] and in assay [2] was at most 16 µg/mL throughout.
For `N=C(N)SCC[C@@H]1CCC[C@@H](c2ccc(-n3cc4cc(C5C[C@@H](OCc6ccccc6)CN5)[nH]c4nc3=O)cc2)N1` (stereo partly drawn) [Compound 49], the MIC in assay [1] and in assay [2] was at most 16 µg/mL each time.
For the molecule `C=C[C@H](N)CCCc1cc(Cl)c(F)c(-c2cc3cn(-c4ccc([C@@H]5CCC[C@@H](CCSC(=N)N)N5C)cc4)c(=O)nc3[nH]2)c1` [Compound 50], the MIC in assay [1] and in assay [2] was at most 16 µg/mL in each case.
On to `N=C(N)SCC[C@@H]1CCC[C@@H](c2ccc(-n3cc4cc(C5C[C@H]6CCCC[C@@H]6N5)[nH]c4nc3=O)cc2)N1` (stereo partly drawn) [Compound 51], for which the MIC in assay [1] and in assay [2] was at most 16 µg/mL each time.
For the molecule `C[C@H](N)CCCc1cc(Cl)c(F)c(-c2cc3cn(-c4ccc([C@@H]5CCCC[C@@H](CCSC(=N)N)N5)cc4)c(=O)nc3[nH]2)c1` [Compound 52], the MIC in assay [1] and in assay [2] was at most 16 µg/mL throughout.
As for `C[C@H](N)CCCN1C(c2cc3cn(-c4ccc([C@@H]5CCC[C@@H](CCSC(=N)N)N5)cc4)c(=O)nc3[nH]2)C[C@H]2CCCC[C@@H]21` (stereo partly drawn) [Compound 53], the minimum inhibitory concentration (MIC) in assay [1] and in assay [2] was at most 16 µg/mL in each case.
Turning to `CC(N)c1cc(Cl)c(F)c(-c2cc3cn(-c4ccc([C@@H]5CCC[C@@H](CCSC(=N)N)N5)cc4)c(=O)nc3[nH]2)c1` (stereo partly drawn) [Compound 54], the MIC in assay [1] and in assay [2] was at most 16 µg/mL throughout.
`CCCN1[C@H](CCSC(=N)N)CCC[C@H]1c1ccc(-n2cc3cc(-c4cc(CCC[C@H](C)N)cc(Cl)c4F)[nH]c3nc2=O)cc1` [Compound 56]: the MIC in assay [1] and in assay [2] was at most 16 µg/mL in each case.
As for `CO[C@@H]1CC(c2cc3cn(-c4ccc([C@@H]5CCC[C@@H](CCSC(=N)N)N5)cc4)c(=O)nc3[nH]2)N(CCC[C@H](C)N)C1` (stereo partly drawn) [Compound 57], the MIC in assay [1] and in assay [2] was at most 16 µg/mL throughout.
Regarding `C[C@H](N)CCCN1C=C(c2cc3cn(-c4ccc([C@@H]5CCC[C@@H](CCSC(=N)N)N5)cc4)c(=O)nc3[nH]2)CCC1` [Compound 58], the MIC in assay [1] and in assay [2] was at most 16 µg/mL throughout.
In the case of `C[C@H](N)CCCc1cc(Cl)c(F)c(-c2cc3cn(-c4ccc([C@@H]5CCC=C[C@@H](CCSC(=N)N)N5)cc4)c(=O)nc3[nH]2)c1` [Compound 59], the MIC in assay [1] and in assay [2] was at most 16 µg/mL throughout.
With `C[C@@H]1CNC(c2cc3cn(-c4ccc([C@@H]5CCC[C@@H](CCSC(=N)N)N5)cc4)c(=O)nc3[nH]2)C1` (stereo partly drawn) [Compound 61], the MIC in assay [1] and in assay [2] was at most 16 µg/mL throughout.
Consider `C[C@H](N)CCCN1C(c2cc3cn(-c4ccc([C@@H]5CCC[C@@H](CCSC(=N)N)N5)cc4)c(=O)nc3[nH]2)C[C@@H]2CCCC[C@@H]21` (stereo partly drawn) [Compound 62], for which the MIC in assay [1] and in assay [2] was at most 16 µg/mL throughout.
For the molecule `C[C@@H](N)CCCN1C[C@H](OCc2ccccc2)CC1c1cc2cn(-c3ccc([C@@H]4CCC[C@@H](CCSC(=N)N)N4)cc3)c(=O)nc2[nH]1` (stereo partly drawn) [Compound 63], the MIC in assay [1] and in assay [2] was at most 16 µg/mL each time.
Turning to `C[C@@H](N)CCCN1C[C@@H](O)CC1c1cc2cn(-c3ccc([C@@H]4CCC[C@@H](CCSC(=N)N)N4)cc3)c(=O)nc2[nH]1` (stereo partly drawn) [Compound 64], the MIC in assay [1] and in assay [2] was at most 16 µg/mL each time.
As for `C[C@@H](N)CCCN1C[C@H](N)CC1c1cc2cn(-c3ccc([C@@H]4CCC[C@@H](CCSC(=N)N)N4)cc3)c(=O)nc2[nH]1` (stereo partly drawn) [Compound 65], the MIC in assay [1] and in assay [2] was at most 16 µg/mL each time.
As to `CN[C@@H]1CC(c2cc3cn(-c4ccc([C@@H]5CCC[C@@H](CCSC(=N)N)N5)cc4)c(=O)nc3[nH]2)N(CCC[C@@H](C)N)C1` (stereo partly drawn) [Compound 66], the MIC in assay [1] and in assay [2] was at most 16 µg/mL in each case.
For `C[C@H]1CC(c2cc3cn(-c4ccc([C@@H]5CCC[C@@H](CCSC(=N)N)N5)cc4)c(=O)nc3[nH]2)N(CCC[C@@H](C)N)C1` (stereo partly drawn) [Compound 67], the MIC in assay [1] and in assay [2] was at most 16 µg/mL in each case.
For the molecule `C[C@@H](N)CCCN1C[C@H](F)CC1c1cc2cn(-c3ccc([C@@H]4CCC[C@@H](CCSC(=N)N)N4)cc3)c(=O)nc2[nH]1` (stereo partly drawn) [Compound 69], the MIC in assay [1] and in assay [2] was at most 16 µg/mL throughout.
In the case of `C[C@@H](N)CCCN1CC(F)(F)CC1c1cc2cn(-c3ccc([C@@H]4CCC[C@@H](CCSC(=N)N)N4)cc3)c(=O)nc2[nH]1` (stereo partly drawn) [Compound 71], the MIC in assay [1] and in assay [2] was at most 16 µg/mL each time.
Turning to `C[C@H](N)CCCN1CCC=C(c2cc3cn(-c4ccc([C@@H]5CCC[C@@H](CCSC(=N)N)N5)cc4)c(=O)nc3[nH]2)C1` [Compound 73], the MIC in assay [1] and in assay [2] was at most 16 µg/mL throughout.
In the case of `C[C@@H](N)CCCN1CC(C)(C)CC1c1cc2cn(-c3ccc([C@@H]4CCC[C@@H](CCSC(=N)N)N4)cc3)c(=O)nc2[nH]1` (stereo partly drawn) [Compound 74], the MIC in assay [1] and in assay [2] was at most 16 µg/mL in each case.
For `C[C@H](N)CCCN1CC=C(c2cc3cn(-c4ccc([C@@H]5CCC[C@@H](CCSC(=N)N)N5)cc4)c(=O)nc3[nH]2)C1` [Compound 75], the MIC in assay [1] and in assay [2] was at most 16 µg/mL in each case.
As for `C[C@@H](N)CCCN1C[C@H](Cc2ccccc2)CC1c1cc2cn(-c3ccc([C@@H]4CCC[C@@H](CCSC(=N)N)N4)cc3)c(=O)nc2[nH]1` (stereo partly drawn) [Compound 76], the MIC in assay [1] and in assay [2] was at most 16 µg/mL each time.
For the molecule `C[C@@H](N)CCCN1C(c2cc3cn(-c4ccc([C@@H]5CCC[C@@H](CCSC(=N)N)N5)cc4)c(=O)nc3[nH]2)CC[C@@H]1c1ccccc1` (stereo partly drawn) [Compound 77], the values for the MIC in assay [1] and in assay [2] were above 16 µg/mL and at most 16 µg/mL, respectively.
In the case of `CC(C[C@@H]1CCC[C@@H](c2ccc(-n3cc4cc(-c5cc(CCC[C@H](C)N)cc(Cl)c5F)[nH]c4nc3=O)cc2)N1)SC(=N)N` (stereo partly drawn) [Compound 78], the MIC in assay [1] and in assay [2] was at most 16 µg/mL each time.
Consider `COC[C@H](N)CCCc1cc(Cl)c(F)c(-c2cc3cn(-c4ccc([C@@H]5CCC[C@@H](CCSC(=N)N)N5)cc4)c(=O)nc3[nH]2)c1` [Compound 80], for which the MIC in assay [1] and in assay [2] was at most 16 µg/mL in each case.
In the case of `C[C@@H](N)CCCN1C[C@H](CO)CC1c1cc2cn(-c3ccc([C@@H]4CCC[C@@H](CCSC(=N)N)N4)cc3)c(=O)nc2[nH]1` (stereo partly drawn) [Compound 81], the MIC in assay [1] and in assay [2] was at most 16 µg/mL each time.
`CCc1cc(CCC[C@H](C)N)cc(-c2cc3cn(-c4ccc([C@@H]5CCC[C@@H](CCSC(=N)N)N5)cc4)c(=O)nc3[nH]2)c1Cl` [Compound 82]: the MIC in assay [1] and in assay [2] was at most 16 µg/mL in each case.
In the case of `CN[C@H]1CNC(c2cc3cn(-c4ccc([C@@H]5CCC[C@@H](CCSC(=N)N)N5)cc4)c(=O)nc3[nH]2)C1` (stereo partly drawn) [Compound 83], the MIC in assay [1] and in assay [2] was at most 16 µg/mL in each case.
Consider `CC(C)c1cc(CCC[C@H](C)N)cc(-c2cc3cn(-c4ccc([C@@H]5CCC[C@@H](CCSC(=N)N)N5)cc4)c(=O)nc3[nH]2)c1F` [Compound 84], for which the MIC in assay [1] and in assay [2] was at most 16 µg/mL throughout.
As for `CCc1cc(CCC[C@H](C)N)cc(-c2cc3cn(-c4ccc([C@@H]5CCC[C@@H](CCSC(=N)N)N5)cc4)c(=O)nc3[nH]2)c1F` [Compound 85], the MIC in assay [1] and in assay [2] was at most 16 µg/mL throughout.
Take `C[C@H](N)CCCc1cc(-c2cc3cn(-c4ccc([C@@H]5CCC[C@@H](CCSC(=N)N)N5)cc4)c(=O)nc3[nH]2)cc(C(C)(C)C)c1` [Compound 86]: the MIC in assay [1] and in assay [2] was at most 16 µg/mL in each case.
